Laboratory results: article PMC9693575, “Isopropyl Amino Acid Esters Ionic Liquids as Vehicles for Non-Steroidal Anti-Inflammatory Drugs in Potential Topical Drug Delivery Systems with Antimicrobial Activity” (International Journal of Molecular Sciences, 2022)
Read-outs that look alike come from different tables or passages of the source.

What was measured:
[1] = pKa / pKB by potentiometric acid-base titration and formation constant log(KS); details: calculated from pKA of acid and pKB of base
Method: Determination of formation constant pKs
Zabrze, Poland). For the measurement of pKA acids, 0.1 M NaOH was used. In order to
ester hydrochloride, HCl aqueous solution, was added in an amount that allowed reach-
After that, an acid-base titration was made out by adding dropwise 5 mM

[2] = Thermogravimetric analysis (thermal stability); details: for TDTGmax, maximum decomposition temperature: DTG, air atmosphere, 10 °C min−1
Method: The thermal stabilities of the obtained NSAIDs isopropyl ester amino acid salts were investigated. […] The beginning of thermal degradation was evaluated based on the value of onset of the TG curve, which occurs in the first phase of the process. […]
Thermogravimetric analysis (TG)
Thermogravimetric analysis was carried out using Netzsch Proteus Thermal Analy- […]
Samples of 5–8 mg were loaded in Al2O3 […]
ment was performed in an air atmosphere (25 cm3min−1) with nitrogen flow (10 cm3min−1) […]
Differential scanning calorimetry (DSC)
Phase transformation temperatures were determined on a PerkinElmer DSC-7 (Rot-gau, Germany). The samples of 3–5 mg were loaded on the aluminum pan with a crimped lid. Measurements were carried out in a nitrogen atmosphere (20 cm3 min-1). The rate of heating/cooling was 5°C min-1. […]
tained for 30 min inside the furnace, then cooled to 0°C to condition the sample and the crucible. After that, heating was conducted to the specified temperature, followed by cool-ing. Unless otherwise stated, two complete cycles of heating and cooling were performed.
The specified maximum temperature was individual for each compound, determined from TG analysis, and it was at least 10°C lower than the onset decomposition tempera-ture. Temperatures reported from DSC data are curve peaks, the melting points being endothermic upon heating and crystallization point being exothermic upon cooling. Lead, indium, tin, and zinc were used as standards to calibrate the temperature. Indium was used for enthalpy measurement calibration. […]

Escherichia coli = test: Disc diffusion antimicrobial susceptibility test, Escherichia coli; format: cell-based; design: key to Inhibition diameter: -: no growth of the organism
Method: (§1) The plates were incubated for 24 h at 37 °C.

[3] = system: Staphylococcus epidermidis; test: Disc diffusion antimicrobial susceptibility test, Staphylococcus epidermidis; format: cell-based; design: key to Inhibition diameter: -: no growth of the organism
Method: as §1

Micrococcus Luteus = test: Disc diffusion antimicrobial susceptibility test, Micrococcus luteus; format: cell-based; design: key to Inhibition diameter: -: no growth of the organism
[4] = DTG; cited from earlier work
[5] = solution transferred to disc 25 mg cm^−3
[6] = solution transferred to disc 50 mg cm^−3
[7] = solution transferred to disc 100 mg cm^−3
[8] = solution transferred to disc 200 mg cm^−3
[9] = solution transferred to disc 400 mg cm^−3
[10] = solution transferred to disc 600 mg cm^−3
[11] = solution transferred to disc 1000 mg cm^−3
[12] = solution transferred to disc 800 mg cm^−3

SMILES | Inhibition diameter (Escherichia coli; [5]) | Inhibition diameter (Escherichia coli; [6]) | Inhibition diameter (Escherichia coli; [7]) | Inhibition diameter (Escherichia coli; [8]) | Inhibition diameter (Escherichia coli; [9]) | Inhibition diameter (Escherichia coli; [10]) | Inhibition diameter (Escherichia coli; [11]) | Inhibition diameter [3, 5] | Inhibition diameter [3, 6] | Inhibition diameter [3, 7] | Inhibition diameter [3, 8] | Inhibition diameter [3, 9] | Inhibition diameter [3, 10] | Inhibition diameter [3, 12] | Inhibition diameter [3, 11] | Inhibition diameter (Micrococcus Luteus; [5]) | Inhibition diameter (Micrococcus Luteus; [6]) | Inhibition diameter (Micrococcus Luteus; [7]) | Inhibition diameter (Micrococcus Luteus; [8]) | Inhibition diameter (Micrococcus Luteus; [9]) [mm] | further results
CC[C@H](C)[C@H](N)C(=O)OC(C)C.COc1ccc2cc([C@H](C)C(=O)O)ccc2c1 [[L-IleOiPr][NAP], L-isoleucine isopropyl ester naproxenate] | - | - | - | - | - | - | - | - | - | - | - | - | 12.0 ± 0.3 mm | 12.4 ± 0.2 mm | 13.5 ± 0.3 mm | 6.4 ± 0.1 mm | 6.7 ± 0.1 mm | 7.0 ± 0.1 mm | 7.3 ± 0.1 mm | 7.5 ± 0.2 | Log(KS) formation constant [1]: 6.11; TTGonset, the onset of the thermal degradation [2]: 127.0 °C; TDTGmax, maximum decomposition temperature [2]: 287.4 °C; Inhibition diameter (Micrococcus Luteus; [10]): 8.1 ± 0.6 mm; Inhibition diameter (Micrococcus Luteus; [12]): 8.7 ± 0.1 mm; Inhibition diameter (Micrococcus Luteus; [11]): 9.5 ± 0.1 mm
COc1ccc2cc([C@H](C)C(=O)O)ccc2c1.CSCC[C@H](N)C(=O)OC(C)C [[L-MetOiPr][NAP], L-methionine isopropyl ester naproxenate] | - | - | - | 6.4 ± 0.3 mm | 7.1 ± 0.1 mm | 7.3 ± 0.2 mm | 7.7 ± 0.2 mm | - | - | - | - | - | - | - | 7.5 ± 0.3 mm | - | - | - | - | 6.4 ± 0.1 | TTGonset, the onset of the thermal degradation [2]: 149.6 °C; TDTGmax, maximum decomposition temperature [2]: 293.2 °C; Inhibition diameter (Micrococcus Luteus; [10]): 7.1 ± 0.2 mm; Inhibition diameter (Micrococcus Luteus; [12]): 7.5 ± 0.1 mm; Inhibition diameter (Micrococcus Luteus; [11]): 7.8 ± 0.2 mm
CC(C)Cc1ccc(C(C)C(=O)O)cc1.CC(C)OC(=O)[C@@H](N)[C@@H](C)O [[L-ThrOiPr][IBU], L-threonine isopropyl ester ibuprofenate] | - | - | - | - | - | - | - | 7.5 ± 0.2 mm | 10.5 ± 0.2 mm | 15.4 ± 0.1 mm | 16.9 ± 0.2 mm | 17.5 ± 0.2 mm | 18.3 ± 0.2 mm | 19.8 ± 1.4 mm | 23.2 ± 0.1 mm | 7.3 ± 0.2 mm | 10.4 ± 0.2 mm | 15.5 ± 0.2 mm | 16.3 ± 0.1 mm | 17.0 ± 0.2 | Log(KS) formation constant [1]: 6.47; Inhibition diameter (Micrococcus Luteus; [10]): 17.5 ± 0.1 mm; Inhibition diameter (Micrococcus Luteus; [12]): 18.2 ± 0.2 mm; Inhibition diameter (Micrococcus Luteus; [11]): 19.3 ± 0.2 mm; TDTGmax, maximum decomposition temperature [4]: 209.9 [50] °C
CC(C)OC(=O)[C@@H](N)[C@@H](C)O.COc1ccc2cc([C@H](C)C(=O)O)ccc2c1 [[L-ThrOiPr][NAP], L-threonine isopropyl ester naproxenate] | - | - | - | - | - | - | - | - | - | - | - | - | - | - | - | 6.2 ± 0.1 mm | 6.6 ± 0.1 mm | 6.9 ± 0.1 mm | 7.6 ± 0.1 mm | 8.5 ± 0.1 | TTGonset, the onset of the thermal degradation [2]: 145.8 °C; TDTGmax, maximum decomposition temperature [2]: 295.3 °C; inhibition zone (in words) ([3]; S. epidermidis, tested concentrations): no inhibition zone was observed; Inhibition diameter (Micrococcus Luteus; [10]): 8.8 ± 0.2 mm; Inhibition diameter (Micrococcus Luteus; [12]): 9.6 ± 0.1 mm; Inhibition diameter (Micrococcus Luteus; [11]): 10.8 ± 0.5 mm
CC(C)OC(=O)[C@@H](N)C(C)C.COc1ccc2cc([C@H](C)C(=O)O)ccc2c1 [[L-ValOiPr][NAP]] | - | - | - | - | - | - | - | - | - | - | - | - | - | 6.6 ± 0.3 mm | 7.4 ± 0.1 mm | 6.2 ± 0.1 mm | 6.3 ± 0.1 mm | 6.4 ± 0.1 mm | 7.2 ± 0.1 mm | 7.3 ± 0.1 | Log(KS) formation constant [1]: 5.89; Inhibition diameter (Micrococcus Luteus; [10]): 7.4 ± 0.2 mm; Inhibition diameter (Micrococcus Luteus; [12]): 8.2 ± 0.2 mm; Inhibition diameter (Micrococcus Luteus; [11]): 8.6 ± 0.2 mm; TDTGmax, maximum decomposition temperature [4]: 275.8 [48] °C
